Results reported in PMC8330742, “New benzothieno[2,3-c]pyridines as non-steroidal CYP17 inhibitors: design, synthesis, anticancer screening, apoptosis induction, and in silico ADME profile studies” (Journal of Enzyme Inhibition and Medicinal Chemistry, 2021).

What was measured:
[1] = system: prostate cancer cell line (PC-3); test: MTT cytotoxicity assay; type: cell-based, human; details: Homo sapiens
Protocol: The MTT method for monitoring in vitro cytotoxicity was used with multiwell plates. Three human cell lines, namely prostate cancer cell line (PC-3), renal cancer cell line (UO-31), and breast cancer cell line (MCF-7) were obtained from the American Type Culture Collection ATCC, Manassas, VA, USA). The cells were trypsinized and seeded in 96 well plates with a density of 1.2 − 1.8 × 10,000 cells/well for 24 h at 37 °C. After treating the cells with five concentrations of compound 5c (0.01, 0.1, 1, 10, 100 µM), an MTT solution (Sigma Co., St. Louis, MO, USA) (5 mg/mL in phosphate buffer solution) was applied to each well and […]. The plates were cultivated in 5% CO2 for 4 h at 37 °C. Successively, the remaining formazan crystals were dissolved in 100 µl of DMSO, and the absorbance was determined with the ROBONIK P2000 spectrophotometer at a wavelength of 570 nm. The obtained values were analysed using Gen5 software (BioTek, UK). The proliferation percentage in each treated cell line was standardised based on their control wells. Both tests have been conducted in triplicate. The IC50 values were calculated using sigmoidal dose-response curve fitting models. […] Each test included a blank containing a complete medium without cells.

CYP17 enzyme = CYP17 enzyme ELISA in mice prostate cancer model; type: in vivo; details: 5 mg/kg i.p., 5 days a week, ELISA of tissue (Mice testis)
Protocol: (§1) A total of 16 mice from the TRAMP/FVB background ([…], male, average 45 days, average weight […], mice with prostate cancer) were taken and divided into 2 groups with 8 animals in each group. One group of mice was given a drug in 0.2 ml of DMSO and phosphate-buffered saline (1:10) ratio (5 mg/kg body weight, i.p., 5 days a week). The control group animals were treated with 0.2 ml of DMSO and phosphate-buffered saline (1:10) ratio. A total of eight mice, four animals from each group, were examined at 13 weeks of age, and the remaining animals from each group were examined at 20 weeks for prostate tumour development. Treatment was stopped 24 h before killing the animals.
BioSource 2704060 96 assay kit is a sandwich enzyme immunoassay for in vitro quantitative measurement of CYP17 enzyme activity in mouse tissue homogenates, cell lysates, cell culture supernatant, and other biological fluids. Tested tissues were rinsed in ice-cold PBS to remove excess blood and weighed before homogenisation. The tissues were minced and homogenised in fresh lysis buffer with a glass homogeniser. (catalog: IS007, different lysis buffer needs to be chosen based on subcellular location of the target protein) (w:v = 1:20–1:50, e.g. 1 ml lysis buffer is added in 20–50 mg tissue sample) The resulting suspension was sonicated with an ultrasonic cell disrupter till the solution was clarified. The homogenates were centrifuged for 5 min at 10,000 × g, and the supernatant was collected. An Aliquot was assayed and stored at ≤ −20 °C.
The assay sample and standard were incubated together with CYP-HRP conjugate in an appropriate number of microplates pre-coated with an antibody specific for the CYP17 enzyme for 1 h. After the incubation period, the wells were decanted and washed five times. The wells were then incubated with a substrate for the HRP enzyme. […] Colour intensity was measured spectrophotometrically at 450 nm in a microplate reader. […]
Assay procedures: Wells for a standard, blank, and sample were prepared. […] The absorbance was measured immediately at 450 nm.

plasma testosterone = test: Testosterone ELISA assay in mice prostate cancer model; type: in vivo; details: 5 mg/kg i.p., 5 days a week, ELISA, 5 mg/kg
Protocol: as §1
The BioVendor mouse/rat testosterone ELISA assay is a competitive immunoassay for the measurement of testosterone in rat and mouse serum or plasma based on the principle of competitive binding. An unknown amount of testosterone present in the sample (plasma or serum) and a known amount of testosterone conjugated to horseradish peroxidase compete for the binding sites of testosterone antiserum coated to the wells of a microplate. The sample was incubated with the microplate for 1 h, then washed four times. The HRP substrate solution was added followed by the stop solution. Colour change has been observed, and the optical density was measured at 450 nm.
Assay procedures: Sufficient number of microplate wells were prepared to accommodate standard and samples in duplicates. The standard, sample, and control (10 µL each) were dispensed with new disposable tips into appropriate wells. Incubation buffer 100 µL was dispensed into each well. Afterward, enzyme conjugate (50 µL) was added to each well and incubated for 60 min at room temperature on a microplate mixer. The content of the wells was discarded, and the wells were rinsed 4 times with diluted wash solution (300 µL per well). The substrate solution (200 µL) was added to each well and incubated in the dark without shaking for 30 min. The reaction was stopped by adding a stop solution (2 N hydrochloric acid solution, 50 µL) to each well. The absorbance of each well was determined at 450 nm.

CYP17 = details: Figure 1, known CYP17 inhibitors; cited from earlier work
WI-38 human cell line = test: In vitro cytotoxicity on WI-38 human cell line (MTT); type: cell-based; details: WI-38 normal human cell line
Protocol: Cell Line cells were obtained from American Type Culture Collection and were cultured using DMEM (Invitrogen/Life Technologies) supplemented with 10% FBS (Hyclone), 10 µg/ml of insulin (Sigma), and 1% penicillin-streptomycin. All of the other chemicals and reagents were obtained from Sigma or Invitrogen. Plate cells were incubated (cells density 1.2–1.8 × 10,000 cells/well) in a volume of 100 µL complete growth medium and 100 ul of the tested compound per well in a 96-well plate for 24 h before the MTT assay. The cultures were removed from the incubator into a laminar flow hood or other sterile work area followed by the addition of reconstituted MTT in an amount equal to 10% of the culture medium volume, then incubated for an additional 2 h. After the incubation period, cultures were removed from the incubator, and the resulted formazan crystals were dissolved by adding an amount of MTT solubilisation solution [M-8910] equal to the original culture medium volume, then the absorbance at a wavelength of 570 nm was measured. Finally, the IC50 of the tested compound compared to the reference was calculated using GraphPad Prism software.

[2] = listed as Abireratone reference
[3] = listed as abiraterone reference

SMILES	IC50 [1]	CYP17 enzyme aver. conc. (CYP17 enzyme; [2])	CYP17 enzyme aver. conc. (CYP17 enzyme; [3])	Plasma testosterone aver. conc. (plasma testosterone; [2])	Plasma testosterone aver. conc. (plasma testosterone; [3])	IC50 (CYP17)	IC50 (WI-38 human cell line)
C[C@]12CC[C@H](O)CC1=CC[C@@H]1[C@@H]2CC[C@]2(C)C(c3cccnc3)=CC[C@@H]12 [Abiraterone, abiraterone, reference compound]	8.3 µM	10.72 nM	10.72 ± 0.17 nM	13.79 nM	13.79 ± 0.33 nM	0.002 µM	–
CN[C@@H]1C[C@H]2O[C@@](C)([C@@H]1OC)n1c3ccccc3c3c4c(c5c6ccccc6n2c5c31)C(=O)NC4 [staurosporine, reference compound]	5.1 µM	–	–	–	–	–	19.2 µM
